Measurements taken from ChEMBL document CHEMBL5131569, “SAGE-718: A First-in-Class N-Methyl-d-Aspartate Receptor Positive Allosteric Modulator for the Potential Treatment of Cognitive Impairment” (J Med Chem, 2022).
pEC50, pIC50: −log10 of the molar value. Values after ≈ are worked out from the molar mass of the structure shown.

How the values were obtained:
[1] = molecular target: Glutamate NMDA receptor; GRIN1/GRIN2A (Homo sapiens, UniProt Q05586+Q12879); experiment: Positive allosteric modulation of recombinant human GluN1/GluN2A receptor stably expressed in HEK293 cells assessed as increase in glycine/L-glutamate-induced channel current at -70 mV holding potential by whole cell patch clamp method; assay type: cell-based
[2] = molecular target: Glutamate NMDA receptor; GRIN1/GRIN2B (Homo sapiens, UniProt Q05586+Q13224); experiment: Positive allosteric modulation of recombinant human GluN1/GluN2B receptor stably expressed in HEK293 cells assessed as increase in glycine/L-glutamate-induced channel current at -70 mV holding potential by whole cell patch clamp method; assay type: cell-based
[3] = Aqueous solubility of compound in PBS incubated for 1 hr under shaking condition by HPLC-MS/MS analysis; assay type: physicochemical
[4] = Metabolic stability in mouse liver microsomes assessed as intrinsic clearance at 10 uM preincubated for 5 mins followed by NADPH addition and measured upto 65 mins by LC-MS/MS analysis; assay type: ADME, Microsome; details: time < 70 min, read-out: CLH
[5] = Metabolic stability in rat hepatocytes assessed as clearance at 10 uM measured upto 120 mins by LC-MS/MS analysis; assay type: ADME, cell-based, Hepatocyte; details: 2 h
[6] = Metabolic stability in dog hepatocytes assessed as clearance at 10 uM measured upto 120 mins by LC-MS/MS analysis; assay type: ADME, cell-based, Canis lupus familiaris, Hepatocyte; details: 2 h
[7] = Metabolic stability in human liver microsomes assessed as intrinsic clearance at 10 uM preincubated for 5 mins followed by NADPH addition and measured upto 65 mins by LC-MS/MS analysis; assay type: ADME, Microsome; details: time < 70 min, read-out: CLH
[8] = Clearance in Beagle dog by LC-MS/MS analysis; assay type: ADME, Canis lupus familiaris; details: in vivo
[9] = Ratio of drug concentration in ip dosed CD-1 mouse brain to plasma after 1 hr by LC-MS/MS analysis; assay type: ADME, organism-based; details: brain and plasma
[10] = molecular target: T1, Cytochrome P450 1A2 (Homo sapiens, UniProt P05177); experiment: Inhibition of CYP1A2 (unknown origin); assay type: ADME
T1 sequence (P05177 whole entry): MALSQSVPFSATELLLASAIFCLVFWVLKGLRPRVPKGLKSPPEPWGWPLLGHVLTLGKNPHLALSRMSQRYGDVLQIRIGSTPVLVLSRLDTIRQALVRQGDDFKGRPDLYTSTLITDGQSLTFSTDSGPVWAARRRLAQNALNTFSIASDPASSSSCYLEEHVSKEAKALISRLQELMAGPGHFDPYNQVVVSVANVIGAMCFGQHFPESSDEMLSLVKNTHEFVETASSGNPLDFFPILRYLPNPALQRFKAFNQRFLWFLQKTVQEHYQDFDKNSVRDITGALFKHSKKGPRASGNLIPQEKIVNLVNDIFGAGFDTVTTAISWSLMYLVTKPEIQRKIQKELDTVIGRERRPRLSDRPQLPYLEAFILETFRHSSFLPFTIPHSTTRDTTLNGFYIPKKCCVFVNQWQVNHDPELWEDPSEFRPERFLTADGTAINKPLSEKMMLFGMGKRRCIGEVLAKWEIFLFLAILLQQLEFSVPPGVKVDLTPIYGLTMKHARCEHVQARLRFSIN

[11] = molecular target: Cytochrome P450 2C9 (Homo sapiens, UniProt P11712); experiment: Inhibition of CYP2C9 (unknown origin); assay type: ADME
[12] = molecular target: Cytochrome P450 2C19 (Homo sapiens, UniProt P33261); experiment: Inhibition of CYP2C19 (unknown origin); assay type: ADME
[13] = Plasma protein binding in mouse after 15 mins by equilibrium dialysis method; assay type: ADME, cell-free; details: read-out: PPB (converted)
[14] = Plasma protein binding in dog after 15 mins by equilibrium dialysis method; assay type: ADME, cell-free, Canis lupus familiaris; details: read-out: PPB (converted)
[15] = Plasma protein binding in human after 15 mins by equilibrium dialysis method; assay type: ADME, cell-free; details: read-out: PPB (converted)
[16] = molecular target: Voltage-gated inwardly rectifying potassium channel KCNH2 (Homo sapiens, UniProt Q12809); experiment: Inhibition of human ERG; assay type: toxicity
[17] = molecular target: Voltage-dependent L-type calcium channel subunit alpha-1C (Homo sapiens, UniProt Q13936); experiment: Inhibition of CaV1.2 (unknown origin) by patch clamp method
[18] = molecular target: Potassium voltage-gated channel subfamily A member 5 (Homo sapiens, UniProt P22460); experiment: Inhibition of Kv1.5 (unknown origin) by patch clamp method
[19] = molecular target: Ionotropic glutamate receptor NMDA 1/2C (Homo sapiens, UniProt Q05586+Q14957); experiment: Positive allosteric modulation of recombinant human GluN1/GluN2C receptor stably expressed in HEK293 cells assessed as increase in glycine/L-glutamate-induced channel current at -70 mV holding potential by whole cell patch clamp method
[20] = test system: Mus musculus; experiment: Reversal of DOI-induced hyperlocomotion in CD-1 mouse assessed as reduction in distance travel at 7.5 mg/kg, ip administered 90 mins prior to DOI induction and measured upto 30 mins post DOI treatment (reference value: 7.8 +/- 0.8 meter); assay type: functional; details: time <= 120 min, 2 h
[21] = test system: Mus musculus; experiment: Reversal of DOI-induced hyperlocomotion in CD-1 mouse assessed as reduction in distance travel at 10 mg/kg, ip administered 90 mins prior to DOI induction and measured upto 30 mins post DOI treatment (reference value: 7.8 +/- 0.8 meter); assay type: functional; details: time <= 120 min, 2 h
[22] = test system: Mus musculus; experiment: Reversal of DOI-induced hyperlocomotion in CD-1 mouse assessed as reduction in rearing at 3 mg/kg, ip administered 90 mins prior to DOI induction and measured upto 30 mins post DOI treatment (reference value: 59.8 +/- 8.6 Counts); assay type: functional; details: time <= 120 min, 2 h
[23] = test system: Mus musculus; experiment: Reversal of DOI-induced hyperlocomotion in CD-1 mouse assessed as reduction in rearing at 10 mg/kg, ip administered 90 mins prior to DOI induction and measured upto 30 mins post DOI treatment (reference value: 59.8 +/- 8.6 Counts); assay type: functional; details: time <= 120 min, 2 h
[24] = Drug concentration in CD-1 mouse plasma at 7.5 mg/kg, ip administered for 90 mins; assay type: ADME, organism-based
[25] = Drug concentration in CD-1 mouse plasma at 10 mg/kg, ip administered for 90 mins; assay type: ADME, organism-based
[26] = Drug concentration in CD-1 mouse brain at 3 mg/kg, ip administered for 90 mins; assay type: ADME, organism-based; details: read-out: Ct
[27] = Drug concentration in CD-1 mouse brain at 5 mg/kg, ip administered for 90 mins; assay type: ADME, organism-based; details: read-out: Ct
[28] = Drug concentration in CD-1 mouse brain at 7.5 mg/kg, ip administered for 90 mins; assay type: ADME, organism-based; details: read-out: Ct
[29] = Drug concentration in CD-1 mouse brain at 10 mg/kg, ip administered for 90 mins; assay type: ADME, organism-based; details: read-out: Ct
[30] = in vivo; details: Sprague-Dawley, rat, brain and plasma
Description: Ratio of AUC(0 to 72 hrs) in Sprague-Dawley rat brain to plasma by LC-MS/MS analysis

Glutamate NMDA receptor; GRIN1/GRIN2A, sequence (Q12879 whole entry, other chains not shown): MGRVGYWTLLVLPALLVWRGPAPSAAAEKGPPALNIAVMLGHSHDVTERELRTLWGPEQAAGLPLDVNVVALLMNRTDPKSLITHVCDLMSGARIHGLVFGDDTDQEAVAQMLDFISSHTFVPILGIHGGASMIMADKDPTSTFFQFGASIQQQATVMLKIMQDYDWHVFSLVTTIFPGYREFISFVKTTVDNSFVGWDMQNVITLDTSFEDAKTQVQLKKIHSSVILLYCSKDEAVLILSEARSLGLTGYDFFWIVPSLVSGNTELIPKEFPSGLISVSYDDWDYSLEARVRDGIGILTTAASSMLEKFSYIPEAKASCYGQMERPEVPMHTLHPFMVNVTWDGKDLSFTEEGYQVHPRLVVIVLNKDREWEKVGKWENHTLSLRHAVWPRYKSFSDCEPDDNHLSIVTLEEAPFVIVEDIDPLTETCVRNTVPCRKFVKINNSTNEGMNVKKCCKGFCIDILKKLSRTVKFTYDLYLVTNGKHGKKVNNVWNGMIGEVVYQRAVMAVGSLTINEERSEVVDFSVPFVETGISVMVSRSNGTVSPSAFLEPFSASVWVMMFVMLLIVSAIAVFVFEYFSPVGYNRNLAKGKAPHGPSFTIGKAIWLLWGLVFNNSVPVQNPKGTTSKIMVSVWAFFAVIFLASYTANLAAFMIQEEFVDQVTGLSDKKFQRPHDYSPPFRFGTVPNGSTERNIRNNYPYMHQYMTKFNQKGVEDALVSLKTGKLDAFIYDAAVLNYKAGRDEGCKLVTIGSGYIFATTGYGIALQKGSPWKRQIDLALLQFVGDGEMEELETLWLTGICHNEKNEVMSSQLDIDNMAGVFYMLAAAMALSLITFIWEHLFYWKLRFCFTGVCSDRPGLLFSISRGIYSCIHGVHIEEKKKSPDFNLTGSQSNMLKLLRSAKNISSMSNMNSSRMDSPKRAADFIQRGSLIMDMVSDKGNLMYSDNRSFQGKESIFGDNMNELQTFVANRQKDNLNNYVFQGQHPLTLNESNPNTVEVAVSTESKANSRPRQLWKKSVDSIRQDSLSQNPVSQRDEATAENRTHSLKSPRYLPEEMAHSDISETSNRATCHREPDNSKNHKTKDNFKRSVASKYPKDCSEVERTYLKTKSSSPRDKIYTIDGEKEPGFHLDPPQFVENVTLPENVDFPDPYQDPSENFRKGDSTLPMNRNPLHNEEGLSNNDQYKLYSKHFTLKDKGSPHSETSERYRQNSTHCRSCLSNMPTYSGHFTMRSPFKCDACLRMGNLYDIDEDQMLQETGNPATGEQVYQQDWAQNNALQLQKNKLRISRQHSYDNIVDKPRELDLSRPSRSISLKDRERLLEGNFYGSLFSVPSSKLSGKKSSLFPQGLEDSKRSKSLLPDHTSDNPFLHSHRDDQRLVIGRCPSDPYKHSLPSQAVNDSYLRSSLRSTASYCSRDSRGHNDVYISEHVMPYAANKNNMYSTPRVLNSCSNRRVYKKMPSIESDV
Voltage-dependent L-type calcium channel subunit alpha-1C, sequence (Q13936 whole entry): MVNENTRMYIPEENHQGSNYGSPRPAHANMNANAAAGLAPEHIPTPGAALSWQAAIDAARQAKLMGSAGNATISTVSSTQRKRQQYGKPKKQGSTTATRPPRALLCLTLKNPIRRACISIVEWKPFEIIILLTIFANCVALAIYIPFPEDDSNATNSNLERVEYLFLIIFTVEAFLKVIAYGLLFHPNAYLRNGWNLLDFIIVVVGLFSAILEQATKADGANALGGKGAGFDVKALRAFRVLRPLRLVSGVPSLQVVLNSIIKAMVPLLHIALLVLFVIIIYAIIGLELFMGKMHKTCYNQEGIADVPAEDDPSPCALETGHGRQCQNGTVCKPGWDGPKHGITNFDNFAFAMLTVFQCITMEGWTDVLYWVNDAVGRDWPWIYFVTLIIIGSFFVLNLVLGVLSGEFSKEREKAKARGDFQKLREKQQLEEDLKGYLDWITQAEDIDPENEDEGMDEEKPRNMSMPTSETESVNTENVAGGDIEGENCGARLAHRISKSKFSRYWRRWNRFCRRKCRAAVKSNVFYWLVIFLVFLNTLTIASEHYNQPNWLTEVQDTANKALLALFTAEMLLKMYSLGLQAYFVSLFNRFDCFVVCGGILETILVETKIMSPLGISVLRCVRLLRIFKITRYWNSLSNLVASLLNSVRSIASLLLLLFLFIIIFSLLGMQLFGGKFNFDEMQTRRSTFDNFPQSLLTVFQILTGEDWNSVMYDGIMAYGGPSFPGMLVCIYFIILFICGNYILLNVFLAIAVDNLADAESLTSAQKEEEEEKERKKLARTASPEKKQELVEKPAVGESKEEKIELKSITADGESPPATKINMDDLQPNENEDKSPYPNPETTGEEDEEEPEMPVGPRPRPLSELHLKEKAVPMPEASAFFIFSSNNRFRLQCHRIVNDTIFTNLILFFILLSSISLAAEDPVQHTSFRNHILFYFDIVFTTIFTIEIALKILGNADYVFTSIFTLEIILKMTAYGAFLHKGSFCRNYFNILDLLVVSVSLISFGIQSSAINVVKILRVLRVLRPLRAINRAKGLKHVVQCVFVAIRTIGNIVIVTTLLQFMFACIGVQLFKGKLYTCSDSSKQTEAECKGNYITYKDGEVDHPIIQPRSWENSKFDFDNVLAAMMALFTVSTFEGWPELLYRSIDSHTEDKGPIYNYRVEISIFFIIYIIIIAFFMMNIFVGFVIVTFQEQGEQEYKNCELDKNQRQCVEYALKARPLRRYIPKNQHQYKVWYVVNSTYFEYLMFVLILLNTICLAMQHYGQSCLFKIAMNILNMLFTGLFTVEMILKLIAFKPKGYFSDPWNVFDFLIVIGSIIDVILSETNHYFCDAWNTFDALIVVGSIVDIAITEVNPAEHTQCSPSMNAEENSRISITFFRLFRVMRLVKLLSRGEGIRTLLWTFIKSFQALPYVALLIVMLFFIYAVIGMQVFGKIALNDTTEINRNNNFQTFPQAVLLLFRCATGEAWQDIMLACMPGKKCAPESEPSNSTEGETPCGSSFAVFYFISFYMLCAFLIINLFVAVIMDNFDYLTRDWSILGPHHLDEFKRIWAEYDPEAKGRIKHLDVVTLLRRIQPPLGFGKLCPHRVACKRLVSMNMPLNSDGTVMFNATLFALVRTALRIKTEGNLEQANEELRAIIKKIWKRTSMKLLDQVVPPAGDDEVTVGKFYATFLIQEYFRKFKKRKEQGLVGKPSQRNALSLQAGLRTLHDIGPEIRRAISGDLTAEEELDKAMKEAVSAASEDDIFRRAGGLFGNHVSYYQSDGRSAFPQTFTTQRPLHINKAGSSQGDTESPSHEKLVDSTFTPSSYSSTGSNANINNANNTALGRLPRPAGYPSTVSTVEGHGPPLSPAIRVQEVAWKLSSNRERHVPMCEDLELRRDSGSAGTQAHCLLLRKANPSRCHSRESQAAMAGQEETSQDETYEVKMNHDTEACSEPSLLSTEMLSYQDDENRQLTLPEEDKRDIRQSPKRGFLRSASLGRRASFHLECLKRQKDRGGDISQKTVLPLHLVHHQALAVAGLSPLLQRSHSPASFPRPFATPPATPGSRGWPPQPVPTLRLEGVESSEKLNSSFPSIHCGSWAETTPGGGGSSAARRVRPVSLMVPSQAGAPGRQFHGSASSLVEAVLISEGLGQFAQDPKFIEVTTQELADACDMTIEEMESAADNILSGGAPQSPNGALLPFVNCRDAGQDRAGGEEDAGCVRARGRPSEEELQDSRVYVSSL
Ionotropic glutamate receptor NMDA 1/2C, sequence (Q14957 whole entry, other chains not shown): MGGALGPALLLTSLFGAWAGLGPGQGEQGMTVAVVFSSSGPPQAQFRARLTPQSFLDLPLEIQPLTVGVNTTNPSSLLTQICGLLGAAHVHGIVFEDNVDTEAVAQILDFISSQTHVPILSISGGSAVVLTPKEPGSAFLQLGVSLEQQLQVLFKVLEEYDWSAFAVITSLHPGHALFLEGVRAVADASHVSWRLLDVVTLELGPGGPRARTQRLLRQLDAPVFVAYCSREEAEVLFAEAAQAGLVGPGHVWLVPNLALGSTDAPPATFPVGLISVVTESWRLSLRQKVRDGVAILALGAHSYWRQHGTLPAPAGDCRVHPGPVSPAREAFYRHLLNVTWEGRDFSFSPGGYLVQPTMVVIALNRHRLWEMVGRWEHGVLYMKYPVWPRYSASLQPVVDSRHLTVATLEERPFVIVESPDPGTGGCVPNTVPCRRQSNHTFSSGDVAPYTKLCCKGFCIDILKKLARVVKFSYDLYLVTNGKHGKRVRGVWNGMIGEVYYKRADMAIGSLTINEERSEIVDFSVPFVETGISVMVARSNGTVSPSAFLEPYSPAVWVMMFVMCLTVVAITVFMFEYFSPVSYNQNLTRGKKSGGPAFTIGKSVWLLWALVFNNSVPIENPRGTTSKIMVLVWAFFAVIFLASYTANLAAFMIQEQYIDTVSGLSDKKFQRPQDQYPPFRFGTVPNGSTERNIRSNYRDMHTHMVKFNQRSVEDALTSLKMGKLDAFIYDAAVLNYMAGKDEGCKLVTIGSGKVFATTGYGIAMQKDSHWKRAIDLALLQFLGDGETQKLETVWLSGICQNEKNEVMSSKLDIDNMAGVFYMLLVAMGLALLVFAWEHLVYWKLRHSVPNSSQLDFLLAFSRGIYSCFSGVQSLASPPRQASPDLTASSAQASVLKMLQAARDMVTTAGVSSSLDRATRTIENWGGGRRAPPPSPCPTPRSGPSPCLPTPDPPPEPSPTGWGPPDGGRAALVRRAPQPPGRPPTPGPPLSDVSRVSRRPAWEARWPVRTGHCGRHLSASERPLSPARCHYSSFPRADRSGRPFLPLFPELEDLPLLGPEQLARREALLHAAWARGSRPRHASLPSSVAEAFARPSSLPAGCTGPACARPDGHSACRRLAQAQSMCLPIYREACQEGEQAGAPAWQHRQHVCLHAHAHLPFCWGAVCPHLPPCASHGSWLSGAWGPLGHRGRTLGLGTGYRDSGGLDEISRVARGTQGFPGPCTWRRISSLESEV

Structure (SMILES): C[C@H](CC[C@](C)(O)C(F)(F)F)[C@H]1CC[C@H]2[C@@H]3CC=C4C[C@@](C)(O)CC[C@]4(C)[C@H]3CC[C@]12C [DALZANEMDOR]
- pEC50 [1]: 7.07
- pEC50 [2]: 7.10
- solubility at 1 h [3]: 2.2 µM (≈ 1 µg/mL)
- microsomal CLint at 10 µM [4]: < 1 µL/min/mg
- CLH [5]: 18.3 mL/min/kg
- CLH [6]: 15 mL/min/kg
- microsomal CLint at 10 µM [7]: 10 µL/min/mg
- clearance [8]: 3.33 mL/min/kg
- Kp at 1 h [9]: 0.2
- pIC50 [10]: < 4.00
- pIC50 [11]: < 4.00
- pIC50 [12]: < 4.00
- fraction unbound at 0.25 h [13]: 0.014
- fraction unbound at 0.25 h [14]: 0.028
- fraction unbound at 0.25 h [15]: 0.015
- pIC50 [16]: < 4.52
- pIC50 [17]: < 4.52
- pIC50 [18]: < 4.52
- pEC50 [19]: 6.82
- Activity [20]: 0.4 m
- Activity [21]: 1.1 m
- Activity [22]: 52.9 Counts
- Activity [23]: 7.7 Counts
- concentration at 1.5 h [24]: 1590 ng/mL
- concentration at 1.5 h [25]: 3210 ng/mL
- concentration at 1.5 h [26]: 490 ng/g
- concentration at 1.5 h [27]: 894 ng/g
- concentration at 1.5 h [28]: 1190 ng/g
- concentration at 1.5 h [29]: 1610 ng/g
- Kp [30]: 5.3
